Experiments:
GAK [1] = molecular target: T1, GAK (Homo sapiens, UniProt O14976); test: KINOMEscan active site-directed competition binding assay, GAK
T1 sequence (O14976 1-1311): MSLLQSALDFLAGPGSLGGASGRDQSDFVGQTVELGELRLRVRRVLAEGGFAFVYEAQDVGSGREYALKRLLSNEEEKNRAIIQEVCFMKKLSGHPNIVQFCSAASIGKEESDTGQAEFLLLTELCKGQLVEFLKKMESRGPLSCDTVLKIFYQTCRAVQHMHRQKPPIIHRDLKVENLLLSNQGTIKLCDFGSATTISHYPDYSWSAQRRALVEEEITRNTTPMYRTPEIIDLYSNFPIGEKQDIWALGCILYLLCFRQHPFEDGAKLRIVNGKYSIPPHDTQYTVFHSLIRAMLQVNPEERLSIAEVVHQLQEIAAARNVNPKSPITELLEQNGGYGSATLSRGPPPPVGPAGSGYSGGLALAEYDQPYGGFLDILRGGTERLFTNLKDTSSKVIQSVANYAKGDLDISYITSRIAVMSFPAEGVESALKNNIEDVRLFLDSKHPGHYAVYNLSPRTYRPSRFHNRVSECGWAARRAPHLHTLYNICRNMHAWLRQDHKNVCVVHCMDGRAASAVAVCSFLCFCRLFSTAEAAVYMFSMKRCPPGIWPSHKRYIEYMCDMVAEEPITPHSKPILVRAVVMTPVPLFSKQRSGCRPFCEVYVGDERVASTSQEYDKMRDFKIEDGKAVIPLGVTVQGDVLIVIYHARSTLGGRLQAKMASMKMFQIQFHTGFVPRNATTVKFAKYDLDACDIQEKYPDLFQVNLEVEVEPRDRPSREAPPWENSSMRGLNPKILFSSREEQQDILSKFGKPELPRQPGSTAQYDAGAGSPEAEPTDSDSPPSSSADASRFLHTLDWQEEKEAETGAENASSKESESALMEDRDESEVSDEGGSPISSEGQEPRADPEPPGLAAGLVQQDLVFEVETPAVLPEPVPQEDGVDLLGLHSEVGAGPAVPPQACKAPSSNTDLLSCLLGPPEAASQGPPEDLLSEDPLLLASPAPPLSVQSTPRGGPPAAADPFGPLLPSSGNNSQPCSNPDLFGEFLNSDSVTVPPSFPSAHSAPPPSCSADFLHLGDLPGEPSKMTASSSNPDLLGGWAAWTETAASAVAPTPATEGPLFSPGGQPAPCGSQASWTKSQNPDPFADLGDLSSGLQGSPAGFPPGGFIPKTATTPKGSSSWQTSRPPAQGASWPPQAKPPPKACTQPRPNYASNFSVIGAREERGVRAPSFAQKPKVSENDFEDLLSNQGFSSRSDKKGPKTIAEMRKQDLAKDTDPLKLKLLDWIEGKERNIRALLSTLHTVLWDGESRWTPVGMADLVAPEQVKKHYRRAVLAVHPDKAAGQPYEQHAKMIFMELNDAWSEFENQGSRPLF

AP2M1 phosphorylation = AP2M1 phosphorylation by Western analysis in Huh-7.5 cells; assay type: cell-based, human; conditions: calyculin A, versus DMSO control
Huh-7.5 cells = test: Cellular viability, alamarBlue-based assay; conditions: HCVpp entry assay, 4 hour treatment
HCV RNA replication = HCV RNA replication by luciferase assay after electroporation; assay type: cell-based, hepatitis C virus; conditions: 72 hours postelectroporation, treated daily
EGFR = EGFR (Homo sapiens, UniProt P00533); test: EGFR binding / anti-EGFR activity
Sequence of EGFR (P00533 25-1210): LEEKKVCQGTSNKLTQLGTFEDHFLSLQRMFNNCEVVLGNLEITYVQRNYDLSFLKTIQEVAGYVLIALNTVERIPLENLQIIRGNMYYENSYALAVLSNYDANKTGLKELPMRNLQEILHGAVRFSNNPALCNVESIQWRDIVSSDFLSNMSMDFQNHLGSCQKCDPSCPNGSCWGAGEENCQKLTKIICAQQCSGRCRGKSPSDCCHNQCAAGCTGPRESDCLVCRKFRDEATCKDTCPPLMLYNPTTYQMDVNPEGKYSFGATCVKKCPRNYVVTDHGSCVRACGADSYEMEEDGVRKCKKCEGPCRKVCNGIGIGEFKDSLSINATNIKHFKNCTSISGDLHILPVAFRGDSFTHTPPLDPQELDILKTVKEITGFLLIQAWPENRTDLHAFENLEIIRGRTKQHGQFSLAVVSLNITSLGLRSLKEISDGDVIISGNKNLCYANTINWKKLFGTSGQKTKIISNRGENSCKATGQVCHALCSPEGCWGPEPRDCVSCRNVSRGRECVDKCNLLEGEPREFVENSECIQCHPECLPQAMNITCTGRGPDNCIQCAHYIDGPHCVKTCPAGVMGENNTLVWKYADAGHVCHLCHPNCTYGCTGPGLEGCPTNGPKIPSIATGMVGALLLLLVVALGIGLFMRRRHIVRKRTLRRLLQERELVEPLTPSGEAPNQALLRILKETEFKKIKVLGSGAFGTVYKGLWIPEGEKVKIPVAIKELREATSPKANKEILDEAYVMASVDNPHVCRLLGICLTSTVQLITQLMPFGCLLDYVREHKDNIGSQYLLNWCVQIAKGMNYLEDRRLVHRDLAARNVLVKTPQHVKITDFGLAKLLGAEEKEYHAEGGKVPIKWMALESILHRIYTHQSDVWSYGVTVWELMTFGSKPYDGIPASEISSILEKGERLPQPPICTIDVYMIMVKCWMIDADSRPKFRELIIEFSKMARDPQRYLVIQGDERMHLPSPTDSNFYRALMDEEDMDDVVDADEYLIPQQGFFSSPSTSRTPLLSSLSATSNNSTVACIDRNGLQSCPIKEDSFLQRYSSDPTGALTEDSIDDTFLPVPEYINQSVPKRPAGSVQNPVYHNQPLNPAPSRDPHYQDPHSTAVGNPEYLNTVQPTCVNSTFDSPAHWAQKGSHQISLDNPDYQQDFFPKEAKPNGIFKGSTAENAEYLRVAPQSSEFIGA

GAK [2] = molecular target: T1, GAK; conditions: cited from earlier work

c1csc(-c2cnc3c(N4CCOCC4)snc3c2)c1 [Compound 12a, 4-(6-(Thiophen-2-yl)isothiazolo[4,3-b]pyridin-3-yl)morpholine]
GAK affinity (in words) (GAK [1]): equipotent

COc1ccc(-c2cnc3c(N4CCOCC4)snc3c2)c(OC)c1 [Compound 12c, 4-(6-(2,4-Dimethoxyphenyl)isothiazolo[4,3-b]pyridin-3-yl)morpholine]
GAK affinity (in words) (GAK [1]): lacks any affinity

c1cc2c(cc1-c1cnc3c(N4CCOCC4)snc3c1)OCO2 [Compound 12f, 4-(6-(Benzo[d][1,3]dioxol-5-yl)isothiazolo[4,3-b]pyridin-3-yl)morpholine]
GAK affinity (in words) (GAK [1]): completely inactive

COc1cc(-c2cnc3c(N4CCOCC4)snc3c2)cc(OC)c1OC [Compound 12g, 4-(6-(3,4,5-Trimethoxyphenyl)isothiazolo[4,3-b]pyridin-3-yl)morpholine]
p-AP2M1 to AP2M1 ratio (in words) (AP2M1 phosphorylation): reduced | effect on cellular viability (in words) (Huh-7.5 cells): minimal effect on cellular viability | effect on HCV RNA replication (in words) (HCV RNA replication): did not affect HCV RNA replication | anti-EGFR activity (in words) (EGFR): lack anti-EGFR activity

COc1cc(-c2cnc3c(N4CCOCC4)snc3c2)ccc1N [Compound 12i, 2-Methoxy-4-(3-morpholinoisothiazolo[4,3-b]pyridin-6-yl)aniline]
effect on HCV RNA replication (in words) (HCV RNA replication): did not affect HCV RNA replication | anti-EGFR activity (in words) (EGFR): lack anti-EGFR activity

COc1ccc(-c2cnc3c(NCCc4ccccc4)snc3c2)cc1OC [Compound 13k, 6-(3,4-dimethoxyphenyl)-N-phenethylisothiazolo[4,3-b]pyridin-3-amine]
GAK affinity (in words) (GAK [1]): completely lacking GAK affinity

CCOc1cc2ncc(C#N)c(Nc3ccc(F)c(Cl)c3)c2cc1NC(=O)/C=C/CN(C)C [pelitinib]
Kd (in words) (GAK [2]): low nanomolar range
